Tests used:
Type in all cases: biochemical
protease = experiment: Protease activity retention in detergent use solution (4000 ppm, 5 GPG water; peptidyl substrate, glycine buffer pH 9.0); conditions: base formula; for Relative Protease Enzyme Activity: use solution at 120° F.
In short: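 Detergent use solutions at 4000 ppm in 5 GPG water were held at 120° F with stirring and sampled up to 4 h, with aliquots flash-frozen. Activity was read on a peptidyl substrate in glycine buffer pH 9.0 by absorbance against a calibration curve. Retention is % activity relative to the t=0 sample.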

amylase = experiment: Amylase activity retention in detergent use solution (4000 ppm, 5 GPG water; ethylidene substrate EPS, HEPES buffer pH 8.0); conditions: base formula
In short: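 Detergent use solution at 4000 ppm in 5 GPG water held at 120° F.; aliquots taken up to 4 h, flash-frozen, then assayed with p-nitrophenyl valerate in TRIS pH 8.0 (lipase) or EPS substrate in HEPES pH 8.0 (amylase). Retention given as % activity relative to t=0.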

[1] = system: enzyme (protease, amylase, lipase); experiment: Overall effects of phosphonates on enzyme activity (Table 3); conditions: overall effect of the phosphonate on enzyme activity in the detergent use solution
In short: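 Protease, amylase and lipase activity in detergent use solutions with varied phosphonate levels, 4000 ppm in 5 GPG water at 120° F., sampled up to 4 h and frozen at −80° C. before assay. Activity given as % retention relative to t=0 (100%).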

NCP(=O)(O)O [AMPA, Aminomethyl phosphonic acid]
protease stability (protease; compared with ATMP, DGAP, PAPEMP, MEAP): improves protease stability, but to a lesser extent | Relative Protease Enzyme Activity (protease; phosphonate 0.3 wt-%, lower half of Table 4A, time 5): 86.30% | Relative Protease Enzyme Activity (protease; phosphonate 0.3 wt-%, lower half of Table 4A, time 20): 63.30% | Relative Protease Enzyme Activity (protease; phosphonate 0.3 wt-%, lower half of Table 4A, time 90): 37.90% | Relative Protease Enzyme Activity (protease; phosphonate 0.3 wt-%, lower half of Table 4A, time 120): 31.17% | Relative Protease Enzyme Activity (protease; phosphonate 0.3 wt-%, lower half of Table 4A, time 150, unit not given): 28.70% | Relative Protease Enzyme Activity (protease; phosphonate 0.3 wt-%, lower half of Table 4A, time 210): 22.72% | Relative Protease Enzyme Activity (protease; phosphonate 0.3 wt-%, lower half of Table 4A, time '0'): 100.00% | Relative Protease Enzyme Activity (protease; phosphonate 0.3 wt-%, lower half of Table 4A, time '40'): 51.37% | Relative Protease Enzyme Activity (protease; phosphonate 0.3 wt-%, lower half of Table 4A, time 'Blank'): 85.83% | Relative Protease Enzyme Activity (protease; phosphonate 0.3 wt-%, lower half of Table 4A, time row printed '10'): 78.58% | Relative Protease Enzyme Activity (protease; phosphonate 0.3 wt-%, lower half of Table 4A, time row printed '60'): 44.31% | Relative Protease Enzyme Activity (protease; phosphonate 0.3 wt-%, lower half of Table 4A, time row printed '180'): 25.64% | Relative Protease Enzyme Activity (protease; phosphonate 0.6 wt-%, time 0 min): 100.00% | Relative Protease Enzyme Activity (protease; phosphonate 0.6 wt-%, time 5 min): 109.27% | Relative Protease Enzyme Activity (protease; phosphonate 0.6 wt-%, time 10 min): 94.52% | Relative Protease Enzyme Activity (protease; phosphonate 0.6 wt-%, time 20 min): 84.97% | Relative Protease Enzyme Activity (protease; phosphonate 0.6 wt-%, time 40 min): 77.92% | Relative Protease Enzyme Activity (protease; phosphonate 0.6 wt-%, time 60 min): 75.86% | Relative Protease Enzyme Activity (protease; phosphonate 0.6 wt-%, time 90 min): 62.50% | Relative Protease Enzyme Activity (protease; phosphonate 0.6 wt-%, time 120 min): 54.43% | Relative Protease Enzyme Activity (protease; phosphonate 0.6 wt-%, time 150 min): 51.19% | Relative Protease Enzyme Activity (protease; phosphonate 0.6 wt-%, time 180 min): 47.47% | Relative Protease Enzyme Activity (protease; phosphonate 0.6 wt-%, time 210 min): 43.42% | Relative Protease Enzyme Activity (protease; phosphonate 0.6 wt-%, time 240 min): 40.00% | Relative Protease Enzyme Activity (protease; phosphonate at 0.1% elemental phosphorus, time 0 min): 107.11% | Relative Protease Enzyme Activity (protease; phosphonate at 0.1% elemental phosphorus, time 5 min): 100.00% | Relative Protease Enzyme Activity (protease; phosphonate at 0.1% elemental phosphorus, time 10 min): 99.75% | Relative Protease Enzyme Activity (protease; phosphonate at 0.1% elemental phosphorus, time 20 min): 84.62% | Relative Protease Enzyme Activity (protease; phosphonate at 0.1% elemental phosphorus, time 40 min): 70.58% | Relative Protease Enzyme Activity (protease; phosphonate at 0.1% elemental phosphorus, time 60 min): 62.19% | Relative Protease Enzyme Activity (protease; phosphonate at 0.1% elemental phosphorus, time 90 min): 49.17% | Relative Protease Enzyme Activity (protease; phosphonate at 0.1% elemental phosphorus, time 120 min): 43.34% | Relative Protease Enzyme Activity (protease; phosphonate at 0.1% elemental phosphorus, time 150 min): 38.26% | Relative Protease Enzyme Activity (protease; phosphonate at 0.1% elemental phosphorus, time 180 min): 34.55% | Relative Protease Enzyme Activity (protease; phosphonate at 0.1% elemental phosphorus, time 210 min): 32.27% | Relative Protease Enzyme Activity (protease; phosphonate at 0.1% elemental phosphorus, time 240 min): 28.25% | Relative Amylase Enzyme Activity (amylase; phosphonate 0.3 wt-%, use solution at 120° F., time 0 min): 82.13% | Relative Amylase Enzyme Activity (amylase; phosphonate 0.3 wt-%, use solution at 120° F., time 5 min): 100.00% | Relative Amylase Enzyme Activity (amylase; phosphonate 0.3 wt-%, use solution at 120° F., time 10 min): 95.55% | Relative Amylase Enzyme Activity (amylase; phosphonate 0.3 wt-%, use solution at 120° F., time 20 min): 101.29% | Relative Amylase Enzyme Activity (amylase; phosphonate 0.3 wt-%, use solution at 120° F., time 40 min): 80.17% | Relative Amylase Enzyme Activity (amylase; phosphonate 0.3 wt-%, use solution at 120° F., time 60 min): 80.10% | Relative Amylase Enzyme Activity (amylase; phosphonate 0.3 wt-%, use solution at 120° F., time 90 min): 87.43% | Relative Amylase Enzyme Activity (amylase; phosphonate 0.3 wt-%, use solution at 120° F., time 120 min): 92.65% | Relative Amylase Enzyme Activity (amylase; phosphonate 0.3 wt-%, use solution at 120° F., time 150 min): 93.49% | Relative Amylase Enzyme Activity (amylase; phosphonate 0.3 wt-%, use solution at 120° F., time 180 min): 102.37% | Relative Amylase Enzyme Activity (amylase; phosphonate 0.3 wt-%, use solution at 120° F., time 210 min): 103.78% | Relative Amylase Enzyme Activity (amylase; phosphonate 0.3 wt-%, use solution at 120° F., time 240 min): 102.93% | Relative Amylase Enzyme Activity (amylase; phosphonate 0.6 wt-%, use solution at 120º F., time 0 min): 100.00% | Relative Amylase Enzyme Activity (amylase; phosphonate 0.6 wt-%, use solution at 120º F., time 5 min): 91.80% | Relative Amylase Enzyme Activity (amylase; phosphonate 0.6 wt-%, use solution at 120º F., time 10 min): 92.54% | Relative Amylase Enzyme Activity (amylase; phosphonate 0.6 wt-%, use solution at 120º F., time 20 min): 85.05% | Relative Amylase Enzyme Activity (amylase; phosphonate 0.6 wt-%, use solution at 120º F., time 40 min): 94.06% | Relative Amylase Enzyme Activity (amylase; phosphonate 0.6 wt-%, use solution at 120º F., time 60 min): 86.14% | Relative Amylase Enzyme Activity (amylase; phosphonate 0.6 wt-%, use solution at 120º F., time 90 min): 90.32% | Relative Amylase Enzyme Activity (amylase; phosphonate 0.6 wt-%, use solution at 120º F., time 120 min): 93.67% | Relative Amylase Enzyme Activity (amylase; phosphonate 0.6 wt-%, use solution at 120º F., time 150 min): 92.05% | Relative Amylase Enzyme Activity (amylase; phosphonate 0.6 wt-%, use solution at 120º F., time 180 min): 81.43% | Relative Amylase Enzyme Activity (amylase; phosphonate 0.6 wt-%, use solution at 120º F., time 210 min): 94.06% | Relative Amylase Enzyme Activity (amylase; phosphonate 0.6 wt-%, use solution at 120º F., time 240 min): 81.87% | Relative Amylase Enzyme Activity (amylase; phosphonate at 0.1% elemental phosphorus level, use solution at 120º F., time 0 min): 97.43% | Relative Amylase Enzyme Activity (amylase; phosphonate at 0.1% elemental phosphorus level, use solution at 120º F., time 5 min): 100.00% | Relative Amylase Enzyme Activity (amylase; phosphonate at 0.1% elemental phosphorus level, use solution at 120º F., time 10 min): 102.34% | Relative Amylase Enzyme Activity (amylase; phosphonate at 0.1% elemental phosphorus level, use solution at 120º F., time 20 min): 105.43% | Relative Amylase Enzyme Activity (amylase; phosphonate at 0.1% elemental phosphorus level, use solution at 120º F., time 40 min): 92.18% | Relative Amylase Enzyme Activity (amylase; phosphonate at 0.1% elemental phosphorus level, use solution at 120º F., time 60 min): 92.23% | Relative Amylase Enzyme Activity (amylase; phosphonate at 0.1% elemental phosphorus level, use solution at 120º F., time 90 min): 96.88% | Relative Amylase Enzyme Activity (amylase; phosphonate at 0.1% elemental phosphorus level, use solution at 120º F., time 120 min): 92.96% | Relative Amylase Enzyme Activity (amylase; phosphonate at 0.1% elemental phosphorus level, use solution at 120º F., time 150 min): 103.38% | Relative Amylase Enzyme Activity (amylase; phosphonate at 0.1% elemental phosphorus level, use solution at 120º F., time 180 min): 102.05% | Relative Amylase Enzyme Activity (amylase; phosphonate at 0.1% elemental phosphorus level, use solution at 120º F., time 210 min): 91.32% | Relative Amylase Enzyme Activity (amylase; phosphonate at 0.1% elemental phosphorus level, use solution at 120º F., time 240 min): 99.25% | Stability (effects on enzyme activity) [1]: Yes
